# US20260243775A1, “CELL LABELING AND ANNOTATION IN MICRO-ORGANOSPHERES” (Xilis, Inc., priority 2023, published 2026)
# Tested on: CRC cells co-encapsulated with fibroblasts, endothelial cells, and PBMCs in MOS
# Test: Live/dead staining (Calcein AM / ethidium homodimer) of EpCAM-stained MOS after drug treatment
# Type: cell-based
# Conditions: higher dose (33.3 μM) versus 1.23 μM, treated for three days, FIG. 3A
# From the text: FIG. 3A includes representative images showing live MOS staining of CRC cells co-encapsulated with fibroblasts, endothelial cells, and PBMCs, stained with EpCAM and treated with vehicle or oxaliplatin for three days, followed by staining with Calcein AM (CAM) and ethidium homodimer (EtH). FIG. 3B is a graph plotting differential drug responses observed for the CRC only condition and for CRCs co-encapsulated with the non-cancer cells, measured by CTG assay.
# Additional images of stained live MOS are shown in FIG. 3A, which includes representative images of live MOS containing CRC cells co-encapsulated with fibroblasts, endothelial cells, and PBMCs, where the MOS were stained with EpCAM and treated with vehicle or oxaliplatin (1.23 μM or 33.3 μM) for three days, followed by staining with Calcein AM (CAM) and ethidium homodimer (EtH). […] When MOS encapsulating only CRC cells or MOS co-encapsulating CRC cells, fibroblasts, endothelial cells, and PBMCs were treated with oxaliplatin, differential responses to the treatment were observed between the CRC-only MOS and the co-encapsulated MOS, as determined by CTG assay (FIG. 3B). However, the drug responses of the CRC-only MOS versus the CRC/non-cancer cell co-encapsulated MOS were much more similar based on live cell dye (CAM): dead cell dye (EtH) ratios from EpCAM positive (FIG. 3C).
compound,measurement,value
O=C1[O][Pt]2([NH][C@@H]3CCCC[C@H]3[NH]2)[O]C1=O [oxaliplatin],"EtH (dead) and Calcein AM (live) staining, degree of killing",a greater degree of killing
